Test results taken from ChEMBL document CHEMBL4680280, “Modulation of the Innate Immune Response by Targeting Toll-like Receptors: A Perspective on Their Agonists and Antagonists” (J Med Chem, 2020).

Columns and labels:
[1] = target: Toll-like receptor 5 (Homo sapiens, UniProt O60602); assay: Inhibition of Flagellin-BS binding to human TLR5 expressed in HEK293 cells harboring SEAP reporter gene preincubated for 24 hrs followed by compound wash out and subsequent Flagellin-BS addition along with compound and measured after 0.5 hrs by QUANTI-Blue assay; format: cell-based
[2] = target: T1, Toll-like receptor 2 (Homo sapiens, UniProt O60603); assay: Agonist activity at TLR2 (unknown origin)
[3] = target: T1, Toll-like receptor 2; assay: Agonist activity at TLR2 in HEK-Blue hTLR2 cells assessed as NF-kappaB activation preincubated for 24 hrs followed by replacement of medium containing compound and measured after 0.5 to 1 hrs by Quanti-blue SEAP assay
[4] = target: Toll-like receptor 4 (Homo sapiens, UniProt O00206); assay: Modulation of TLR4 in human THP1 cells assessed as reduction in LPS-induced TLR4 expression pretreated for 2 hrs followed by LPS challenge and measured after 18 hrs by flow cytometry; format: cell-based, THP-1
Sequence of Toll-like receptor 4 (O00206 whole entry): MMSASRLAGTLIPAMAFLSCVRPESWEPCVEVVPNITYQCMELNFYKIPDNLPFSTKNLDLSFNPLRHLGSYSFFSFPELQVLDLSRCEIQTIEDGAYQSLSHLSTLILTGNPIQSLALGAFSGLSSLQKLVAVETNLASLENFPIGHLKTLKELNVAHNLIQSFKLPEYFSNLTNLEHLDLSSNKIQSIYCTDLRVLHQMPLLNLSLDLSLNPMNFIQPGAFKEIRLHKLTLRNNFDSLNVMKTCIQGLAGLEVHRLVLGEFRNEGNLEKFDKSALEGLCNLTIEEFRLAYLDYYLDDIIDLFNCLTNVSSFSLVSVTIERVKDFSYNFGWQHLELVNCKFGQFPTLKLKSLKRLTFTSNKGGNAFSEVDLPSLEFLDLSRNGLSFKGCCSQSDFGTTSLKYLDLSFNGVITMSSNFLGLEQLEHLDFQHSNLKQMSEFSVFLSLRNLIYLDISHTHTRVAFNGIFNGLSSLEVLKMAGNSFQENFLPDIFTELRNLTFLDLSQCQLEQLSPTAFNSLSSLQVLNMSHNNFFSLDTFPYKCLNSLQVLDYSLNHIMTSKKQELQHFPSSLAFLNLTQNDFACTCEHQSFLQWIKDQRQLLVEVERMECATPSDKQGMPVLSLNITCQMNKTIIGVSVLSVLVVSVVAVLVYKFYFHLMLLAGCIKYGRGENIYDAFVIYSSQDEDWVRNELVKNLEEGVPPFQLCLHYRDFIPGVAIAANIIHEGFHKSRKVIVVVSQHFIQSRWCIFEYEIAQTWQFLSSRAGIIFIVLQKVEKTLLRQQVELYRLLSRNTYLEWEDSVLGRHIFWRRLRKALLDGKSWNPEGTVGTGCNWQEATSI

T1 sequence (O60603 whole entry): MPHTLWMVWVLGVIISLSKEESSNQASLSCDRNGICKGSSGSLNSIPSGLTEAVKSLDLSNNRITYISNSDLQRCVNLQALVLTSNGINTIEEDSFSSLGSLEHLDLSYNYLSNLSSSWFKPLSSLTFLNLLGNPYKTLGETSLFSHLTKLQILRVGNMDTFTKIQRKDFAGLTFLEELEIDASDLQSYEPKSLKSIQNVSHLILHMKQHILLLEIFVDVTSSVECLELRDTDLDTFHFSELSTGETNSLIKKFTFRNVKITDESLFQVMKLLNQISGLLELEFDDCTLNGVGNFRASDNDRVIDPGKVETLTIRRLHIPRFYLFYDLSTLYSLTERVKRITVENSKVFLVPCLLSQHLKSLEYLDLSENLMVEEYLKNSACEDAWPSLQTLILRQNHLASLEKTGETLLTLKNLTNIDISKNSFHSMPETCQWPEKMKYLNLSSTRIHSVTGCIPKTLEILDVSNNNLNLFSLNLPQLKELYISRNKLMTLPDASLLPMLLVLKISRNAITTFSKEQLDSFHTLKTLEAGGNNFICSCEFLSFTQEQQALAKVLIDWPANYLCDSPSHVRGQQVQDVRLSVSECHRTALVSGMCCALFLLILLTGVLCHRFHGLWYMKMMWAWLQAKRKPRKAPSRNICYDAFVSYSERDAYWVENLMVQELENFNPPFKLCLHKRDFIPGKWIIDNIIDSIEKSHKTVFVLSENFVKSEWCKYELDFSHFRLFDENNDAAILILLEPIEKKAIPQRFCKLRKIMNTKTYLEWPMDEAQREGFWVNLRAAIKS
Sequence of Toll-like receptor 5 (O60602 whole entry): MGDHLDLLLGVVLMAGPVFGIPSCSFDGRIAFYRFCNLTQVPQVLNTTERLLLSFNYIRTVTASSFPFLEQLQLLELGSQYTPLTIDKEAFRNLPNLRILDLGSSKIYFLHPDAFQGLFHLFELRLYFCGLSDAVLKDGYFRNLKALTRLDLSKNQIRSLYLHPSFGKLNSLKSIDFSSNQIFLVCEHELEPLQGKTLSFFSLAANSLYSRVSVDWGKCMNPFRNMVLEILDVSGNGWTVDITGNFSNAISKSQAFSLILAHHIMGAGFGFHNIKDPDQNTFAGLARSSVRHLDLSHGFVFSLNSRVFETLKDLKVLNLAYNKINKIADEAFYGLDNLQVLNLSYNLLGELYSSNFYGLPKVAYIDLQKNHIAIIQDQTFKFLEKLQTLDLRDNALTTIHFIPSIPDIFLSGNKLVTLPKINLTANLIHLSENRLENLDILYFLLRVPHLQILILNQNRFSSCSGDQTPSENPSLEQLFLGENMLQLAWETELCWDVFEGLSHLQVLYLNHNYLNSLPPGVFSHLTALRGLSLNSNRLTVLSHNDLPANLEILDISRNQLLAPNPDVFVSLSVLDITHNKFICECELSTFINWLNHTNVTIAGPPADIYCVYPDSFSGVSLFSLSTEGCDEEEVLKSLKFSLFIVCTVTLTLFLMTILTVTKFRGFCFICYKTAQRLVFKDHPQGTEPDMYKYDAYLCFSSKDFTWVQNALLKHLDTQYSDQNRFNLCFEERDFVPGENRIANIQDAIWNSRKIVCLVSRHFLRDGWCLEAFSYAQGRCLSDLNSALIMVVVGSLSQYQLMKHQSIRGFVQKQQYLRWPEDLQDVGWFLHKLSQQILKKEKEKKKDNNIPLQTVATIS

Row | EC50 [2] | SMILES | further results
1 |  | c1ccc(Cn2c(Sc3ncnc4c3sc3ncccc34)nnc2-c2ccncc2)cc1 | IC50 [1]: 850 nM
2 | 0.3 nM | CCCCCCCCCCCCCCCC(=O)OCCCC[C@H](CSC[C@H](N)C(=O)N[C@@H](CO)C(=O)N[C@@H](CCCCN)C(=O)N[C@@H](CCCCN)C(=O)N[C@@H](CCCCN)C(=O)N[C@@H](CCCCN)C(=O)N[C@@H](CO)C(=O)N[C@@H](CC(C)C)C(=O)N[C@H](CN[C@@H](CCSC)C(=O)N[C@@H](Cc1c[nH]c2ccccc12)C(=O)N[C@H](C(=O)N[C@H](C(=O)N[C@@H](CCC(N)=O)C(=O)N[C@H](C(=O)O)C(C)C)[C@@H](C)O)[C@@H](C)CC)CC(C)C)OC(=O)CCCCCCCCCCCCCCC | 
3 | 0.47 nM | CCCCCCCCCCCCCCCC(=O)OC[C@H](CSC[C@H](N)C(=O)N[C@@H](CO)C(=O)N[C@@H](CCCCN)C(=O)N[C@@H](CCCCN)C(=O)N[C@@H](CCCCN)C(=O)N[C@@H](CCCCN)C(=O)N[C@@H](CO)C(=O)N[C@@H](CC(C)C)C(=O)N[C@H](CN[C@@H](CCSC)C(=O)N[C@@H](Cc1c[nH]c2ccccc12)C(=O)N[C@H](C(=O)N[C@H](C(=O)N[C@@H](CCC(N)=O)C(=O)N[C@H](C(=O)O)C(C)C)[C@@H](C)O)[C@@H](C)CC)CC(C)C)OC(=O)CCCCCCCCCCCCCCC | 
4 | 0.28 nM | CCCCCCCCCCCCCCCC(=O)OC[C@H](CSC[C@H](NC(C)=O)C(=O)N[C@@H](CO)C(=O)N[C@@H](CCCCN)C(=O)N[C@@H](CCCCN)C(=O)N[C@@H](CCCCN)C(=O)N[C@@H](CCCCN)C(=O)N[C@@H](CO)C(=O)N[C@@H](CC(C)C)C(=O)N[C@H](CN[C@@H](CCSC)C(=O)N[C@@H](Cc1c[nH]c2ccccc12)C(=O)N[C@H](C(=O)N[C@H](C(=O)N[C@@H](CCC(N)=O)C(=O)N[C@H](C(=O)O)C(C)C)[C@@H](C)O)[C@@H](C)CC)CC(C)C)OC(=O)CCCCCCCCCCCCCCC | 
5 |  | CCOC(=O)c1c(NC(=O)N2CCN(C)CC2)sc2c1CCC2 | EC50 [3]: 550 nM
6 | 0.38 nM | CCCCCCCCCCCCCCCC(=O)OCCC[C@H](CSC[C@H](N)C(=O)N[C@@H](CO)C(=O)N[C@@H](CCCCN)C(=O)N[C@@H](CCCCN)C(=O)N[C@@H](CCCCN)C(=O)N[C@@H](CCCCN)C(=O)N[C@@H](CO)C(=O)N[C@@H](CC(C)C)C(=O)N[C@H](CN[C@@H](CCSC)C(=O)N[C@@H](Cc1c[nH]c2ccccc12)C(=O)N[C@H](C(=O)N[C@H](C(=O)N[C@@H](CCC(N)=O)C(=O)N[C@H](C(=O)O)C(C)C)[C@@H](C)O)[C@@H](C)CC)CC(C)C)OC(=O)CCCCCCCCCCCCCCC | 
7 |  | CNc1ccc([N+](=O)[O-])cc1-n1cnc(-c2ccc(C(F)(F)F)cc2O)c1 | EC50 [3]: 4.88 nM
8 |  | C=C1C(=O)O[C@@H]2[C@H]3O[C@]3(C)CC/C=C(\C)CC[C@@H]12 | IC50 [4]: 1400 nM
